Source: PubChem BioAssay (NCI)
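Test compounds were applied to cells in 96-well plates for 48 hours at 5 doses. GI50: concentration for 50% inhibition of growth. TGI: concentration producing complete growth inhibition.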

Columns and labels:
Assay in all cases: inhibition of tumour cell growth, NCI panel, 48 h
786-0 renal = tested on: 786-0 renal
A498 renal = tested on: A498 renal
A549 NSCLC = tested on: A549 NSCLC
ACHN renal = tested on: ACHN renal
BT-549 breast = tested on: BT-549 breast
CAKI-1 renal = tested on: CAKI-1 renal
CCRF-CEM leukemia = tested on: CCRF-CEM leukemia
COLO 205 colon = tested on: COLO 205 colon
DU-145 prostate = tested on: DU-145 prostate
EKVX NSCLC = tested on: EKVX NSCLC
HCC-2998 colon = tested on: HCC-2998 colon
HCT-116 colon = tested on: HCT-116 colon
HCT-15 colon = tested on: HCT-15 colon
HL-60(TB) leukemia = tested on: HL-60(TB) leukemia
HOP-62 NSCLC = tested on: HOP-62 NSCLC
HOP-92 NSCLC = tested on: HOP-92 NSCLC
HS 578T breast = tested on: HS 578T breast
HT29 colon = tested on: HT29 colon
IGROV1 ovarian = tested on: IGROV1 ovarian
K-562 leukemia = tested on: K-562 leukemia
KM12 colon = tested on: KM12 colon
LOX IMVI melanoma = tested on: LOX IMVI melanoma
M14 melanoma = tested on: M14 melanoma
MALME-3M melanoma = tested on: MALME-3M melanoma
MCF7 breast = tested on: MCF7 breast
MDA-MB-231 breast = tested on: MDA-MB-231 breast
MDA-MB-435 = tested on: MDA-MB-435
MOLT-4 leukemia = tested on: MOLT-4 leukemia
NCI-H226 lung = tested on: NCI-H226 lung
NCI-H23 lung = tested on: NCI-H23 lung
NCI-H460 lung = tested on: NCI-H460 lung
NCI-H522 lung = tested on: NCI-H522 lung
NCI/ADR-RES ovarian = tested on: NCI/ADR-RES ovarian
OVCAR-4 ovarian = tested on: OVCAR-4 ovarian
OVCAR-5 ovarian = tested on: OVCAR-5 ovarian
OVCAR-8 ovarian = tested on: OVCAR-8 ovarian
PC-3 prostate = tested on: PC-3 prostate
RPMI-8226 leukemia = tested on: RPMI-8226 leukemia
RXF 393 renal = tested on: RXF 393 renal
SF-268 CNS = tested on: SF-268 CNS
SF-295 CNS = tested on: SF-295 CNS
SF-539 CNS = tested on: SF-539 CNS
SK-MEL-2 melanoma = tested on: SK-MEL-2 melanoma
SK-MEL-28 melanoma = tested on: SK-MEL-28 melanoma
SK-OV-3 ovarian = tested on: SK-OV-3 ovarian
SN12C renal = tested on: SN12C renal
SNB-19 CNS = tested on: SNB-19 CNS
SNB-75 CNS = tested on: SNB-75 CNS
SR leukemia = tested on: SR leukemia
SW-620 colon = tested on: SW-620 colon
T-47D breast = tested on: T-47D breast
TK-10 renal = tested on: TK-10 renal
U251 CNS = tested on: U251 CNS
UACC-257 melanoma = tested on: UACC-257 melanoma
UACC-62 melanoma = tested on: UACC-62 melanoma
UO-31 renal = tested on: UO-31 renal

CS(=O)(=O)Nc1cc(-c2ccc3ncc(C#N)c(NCc4ccccc4O)c3c2)cnc1Cl
GI50 (786-0 renal): 693 nM
TGI (786-0 renal): > 100000 nM
GI50 (A498 renal): 227 nM
TGI (A498 renal): 835 nM
GI50 (A549 NSCLC): 1960 nM
TGI (A549 NSCLC): 13000 nM
GI50 (ACHN renal): 1700 nM
TGI (ACHN renal): > 63000 nM
GI50 (BT-549 breast): 167 nM
TGI (BT-549 breast): 1340 nM
GI50 (CAKI-1 renal): 325 nM
TGI (CAKI-1 renal): 2910 nM
GI50 (CCRF-CEM leukemia): 243 nM
TGI (CCRF-CEM leukemia): > 100000 nM
GI50 (COLO 205 colon): 674 nM
TGI (COLO 205 colon): 2260 nM
GI50 (DU-145 prostate): 613 nM
TGI (DU-145 prostate): 12400 nM
GI50 (EKVX NSCLC): 1200 nM
TGI (EKVX NSCLC): 7100 nM
GI50 (HCC-2998 colon): 745 nM
TGI (HCC-2998 colon): 6510 nM
GI50 (HCT-116 colon): 408 nM
TGI (HCT-116 colon): 2960 nM
GI50 (HCT-15 colon): 516 nM
TGI (HCT-15 colon): 12000 nM
GI50 (HL-60(TB) leukemia): 808 nM
TGI (HL-60(TB) leukemia): 21700 nM
GI50 (HOP-62 NSCLC): 480 nM
TGI (HOP-62 NSCLC): 13300 nM
GI50 (HOP-92 NSCLC): 117 nM
TGI (HOP-92 NSCLC): 725 nM
GI50 (HS 578T breast): 118 nM
TGI (HS 578T breast): 612 nM
GI50 (HT29 colon): 1090 nM
TGI (HT29 colon): 8630 nM
GI50 (IGROV1 ovarian): 229 nM
TGI (IGROV1 ovarian): 1290 nM
GI50 (K-562 leukemia): 465 nM
TGI (K-562 leukemia): > 100000 nM
GI50 (KM12 colon): 652 nM
TGI (KM12 colon): 7060 nM
GI50 (LOX IMVI melanoma): 397 nM
TGI (LOX IMVI melanoma): 2180 nM
GI50 (M14 melanoma): 532 nM
TGI (M14 melanoma): 10900 nM
GI50 (MALME-3M melanoma): 184 nM
TGI (MALME-3M melanoma): 1150 nM
GI50 (MCF7 breast): 288 nM
TGI (MCF7 breast): 9270 nM
GI50 (MDA-MB-231 breast): 585 nM
TGI (MDA-MB-231 breast): 4040 nM
GI50 (MDA-MB-435): 539 nM
TGI (MDA-MB-435): 9850 nM
GI50 (MOLT-4 leukemia): 418 nM
TGI (MOLT-4 leukemia): > 100000 nM
GI50 (NCI-H226 lung): 908 nM
TGI (NCI-H226 lung): 32200 nM
GI50 (NCI-H23 lung): 600 nM
TGI (NCI-H23 lung): 15800 nM
GI50 (NCI-H460 lung): 1420 nM
TGI (NCI-H460 lung): 18400 nM
GI50 (NCI-H522 lung): 460 nM
TGI (NCI-H522 lung): 6260 nM
GI50 (NCI/ADR-RES ovarian): 3090 nM
TGI (NCI/ADR-RES ovarian): > 100000 nM
GI50 (OVCAR-4 ovarian): 468 nM
TGI (OVCAR-4 ovarian): 6410 nM
GI50 (OVCAR-5 ovarian): 1330 nM
TGI (OVCAR-5 ovarian): 19000 nM
GI50 (OVCAR-8 ovarian): 718 nM
TGI (OVCAR-8 ovarian): 16800 nM
GI50 (PC-3 prostate): 531 nM
TGI (PC-3 prostate): 13200 nM
GI50 (RPMI-8226 leukemia): 609 nM
TGI (RPMI-8226 leukemia): 3390 nM
GI50 (RXF 393 renal): 212 nM
TGI (RXF 393 renal): 1280 nM
GI50 (SF-268 CNS): 248 nM
TGI (SF-268 CNS): 3120 nM
GI50 (SF-295 CNS): 681 nM
TGI (SF-295 CNS): 5190 nM
GI50 (SF-539 CNS): 400 nM
TGI (SF-539 CNS): 3200 nM
GI50 (SK-MEL-2 melanoma): 175 nM
TGI (SK-MEL-2 melanoma): 554 nM
GI50 (SK-MEL-28 melanoma): 387 nM
TGI (SK-MEL-28 melanoma): 7380 nM
GI50 (SK-OV-3 ovarian): 612 nM
TGI (SK-OV-3 ovarian): 3680 nM
GI50 (SN12C renal): 450 nM
TGI (SN12C renal): > 65000 nM
GI50 (SNB-19 CNS): 507 nM
TGI (SNB-19 CNS): 15100 nM
GI50 (SNB-75 CNS): < 37.8 nM
TGI (SNB-75 CNS): 743 nM
GI50 (SR leukemia): 231 nM
TGI (SR leukemia): > 100000 nM
GI50 (SW-620 colon): 470 nM
TGI (SW-620 colon): 6960 nM
GI50 (T-47D breast): 122 nM
TGI (T-47D breast): 4970 nM
GI50 (TK-10 renal): 375 nM
TGI (TK-10 renal): 3420 nM
GI50 (U251 CNS): 300 nM
GI50 (UACC-257 melanoma): 736 nM
TGI (UACC-257 melanoma): 7060 nM
GI50 (UACC-62 melanoma): 282 nM
TGI (UACC-62 melanoma): 2580 nM
GI50 (UO-31 renal): 417 nM
TGI (UO-31 renal): > 25900 nM
